Patent US20100099109A1, “Methods for Analyzing Drug Response” (NODALITY, INC., A DELAWARE CORPORATION, priority 2008, published 2010)
“Also recorded” adds a separate entry of the source.

Columns and labels:
[1] = system: Mylotarg sensitive cell lines; assay: Mylotarg exposure and modulated signaling in sensitive cell lines; assay type: cell-based
Method: (§1) The experimental measurements included forward and side scatter, the use of viability dyes (amine aqua and propidium iodide (PI)), and determination of cell cycle and apoptosis by measuring DNA content with DRAQ5. Additionally, cell cycle progression was measured by determining levels of cyclin B1, phosphorylated histone H3, and phosphorylated CDK-1. All these determinations were made in freshly thawed as well as in cultured cycling cells.
(§2) After incubation with fluorochrome-conjugated antibody panels that recognized: p-H2AX, p-Chk2, p-ATM, p-53, cleaved PARP and cleaved caspase 3, cells were processed for cytometry as described above.
(§3) Experiments were conducted in which cell lines were exposed for 5-15 minutes to growth factors and cytokines, after which cells were fixed, permeabilized and incubated with panels of fluorochrome-conjugated antibody panels that recognized intracellular signaling molecules. After processing, cells were acquired on the cytometer.

primary AML cell sample = assay: Mylotarg response signatures (DNA damage response by p-CHK2/p-H2AX; apoptosis by cleaved PARP, FSC and viability dyes), flow cytometry; assay type: cell-based, human
Method: The present illustrative example represents how to analyze cells in one embodiment of the present invention. There are several steps in the process, such as treatment with modulator, incubation with antibodies, and processing sample for acquisition of cells on the cytometer. Treatment with modulator(s) can start with thawed cryopreserved cells and end with cells fixed in PFA and permeabilized in methanol. Then the cells can be incubated with an antibody directed to a particular protein of interest and then analyzed using a flow cytometer. A protocol similar to the following was used to analyze AML cells from patient samples. The materials and methods described in this example can be used and/or were used in the other examples described below.
Cell thawing and live/dead staining: Cells are thawed_in a 37° C. water bath, gently resuspend in the vial, and transferred to a 15 mL conical tube. The 15 mL tube is centrifuged at 930 RPM (200×g) for 8 minutes at room temperature. The supernatant is then aspirated, and the pellet is gently resuspended in 1 mL media A. The cell suspension is filtered through a 70 um cell strainer into a new 15 mL tube. The cell strainer is then rinsed with 1 mL media A and another 12 mL of media A into the 15 mL tube. Collected cells are then mixed into an even suspension. A 20 μl, aliquot of this suspension is immediately transferred into a 96-well plate containing 180 μl, PBS+4% FBS+CD45 Alexa 700+PI to determine cell count and viability post spin. After the determination, the 15 mL tubes are centrifuged at 930 RPM (200×g) for 8 minutes at room temperature. The resulting supernatant is aspirated, and the cells are gently resuspended in 4 mL PBS+4 μl, Amine Aqua (another equivalent viability dye can be used instead) and incubated for 15 min in a 37° C. incubator. 10 mL RPMI+1% FBS are added to the cell suspension, followed by inversion mixing. The 15 mL tubes are centrifuged at 930 RPM (200×g) for 8 minutes at room temperature. The stained cells are then resuspended in Media A at the desired cell concentration (1.25×10^6/mL). • a. Samples with low numbers of cells (<18.5×10^6) are resuspend in up to 15 mL of media. • b. For samples with high numbers of cells (>18.5×10^6), the volume is raised to 10 mL with media A and the desired volume is transferred to a new 15 mL tube, adjusting the cell concentration to 1.25×10^6 cells/mL. 1.6 mL of the above cell suspension are then transferred into wells of a multi-well plate, from which 80 ul are distributed into each well of a subsequent plate. Plates are covered with a lid (Nunc) and placed in a 37° C. incubator for 2 hours to rest.
Treatment of Cells with a Modulator: A concentration for each stimulant that is five fold (5×) more than the final concentration is prepared using Media A as diluent. The 5× stimulants are arrayed in a standard 96 well v-bottom plate that correspond to the wells on the plate with cells to be stimulated. Fixative is prepared by dilution of stock 16% paraformaldehyde with PBS to a concentration that is 1.5×, then placed in a 37° C. water bath. Once the plated cells have completed their incubation, the plate(s) are taken out of the incubator and place in a 37° C. water bath next to the pipette apparatus. Prior to addition of stimulant, each plate of cells is taken from the water bath and gently swirled to resuspend any settled cells. The stimulant is pipetted into the cell plate, which is then held over a vortexer set to “7” and mixed for 5 seconds, and followed by the return of the deep well plate to the water bath.
Fixing Cells: 200 μL of the fixative solution (final concentration is 1.6%) is dispensed into wells and then mixed on the titer plate shaker on high for 5 seconds. The plate is then covered with foil sealer and floated in 37° C. water bath for 10 min, followed by a 6 min spin at 2000 rpm at room temperature.

U937 cell line = assay: Mylotarg/Nocodazole exposure, multiparameter flow cytometry of DNA damage, cell cycle and apoptosis; assay type: cell-based
Description: (§4) ATM activity also phosphorylates Chk2 and p53. […] Cyclin B1 is produced during the G2 phase of the cell cycle and its accumulation drives the cell cycle into M phase. Therefore, low levels of Cyclin B1 mark G1 and S phases, high levels mark G2 phase, and higher levels mark M phase. Histone H3 (S28) becomes phosphorylated in M phase, making p-Histone H3(S28) a useful marker of cells in M phase and not G2. It is also possible to monitor the G2/M phases of the cell cycle by measuring the phosphorylation status of Cdk1, previously known as Cdc2, a cyclin-dependent protein kinase that controls the cell cycle entry from G2 to M phase. An inhibitory phosphorylation on Cdk1 is removed by CDC25C in the M phase transition, allowing G2 cells to be distinguished from M cells based on levels of p-Cdk1. […] Treating cells with the microtubule polymerization inhibitor Nocodazole induces cells cycle arrest in M phase without DNA damage.
as §1, §2

[2] = lyophilized powder; cited from earlier work
Healthy myeloid cells = assay: Mylotarg treatment of healthy myeloid cells (DNA damage and apoptosis); assay type: cell-based; conditions: at 72 h
Description: In some embodiments, the invention may identify a set of drug response signatures in disease cells. The drug response signature is a profile of the activation levels of activatable elements following in vitro exposure of patient samples to a drug and one or more modulators, and can predict whether patients may respond to the drug. […] In some embodiments, other measurements of cell viability may be used, for example cleaved caspase 3, or amount of dyes staining or other stains, for example: propidium idodide, SYTOX, TUNEL, or acridine orange. […] For review, see van Attikum H., and Gasser S. M. Trends in Cell Biology 19: pp. 207-17 (2009). ATR and ATM kinase activity in response to DNA damage activates Chk1 and Chk2, respectively. […] For review, see Abraham, R. T. Cell cycle checkpoint signaling through the ATM and ATR kinases. Genes & Dev. 15: 2177-96 (2001). […] This is also seen at earlier timepoints.

[3] = system: Mylotarg refractory cell lines; assay: Mylotarg exposure and modulated signaling in resistant cell lines; assay type: cell-based
Method: as §1, §2, §3

Ramos cells = assay: Mylotarg exposure, multiparameter flow cytometry of DNA damage and cell cycle; assay type: cell-based
Description: as §4
as §1, with “cells. […]” for “cells.”

KG-1 cells = assay: Mylotarg exposure, multiparameter flow cytometry of DNA damage, cell cycle and apoptosis; assay type: cell-based
Description: as §4, §1
(§5) The experiments were conducted in a similar fashion as shown above for examples 1 and 2. […] After incubation with fluorochrome-conjugated antibody panels that recognized: p-H2AX, p-Chk2, p-ATM, p-53, cleaved PARP and cleaved caspase 3, cells were processed for cytometry as described above.

GDM-1 cells = assay: as above; assay type: cell-based
Description: as §4, §1, §5

[4] = system: Peripheral blood mononuclear cells and bone marrow mononuclear cells derived from AML and healthy samples; assay: Expression marker levels after Mylotarg exposure; assay type: cell-based

gemtuzumab ozogamicin [Mylotarg]
G2/M arrest [1]: G2/M arrest | cyclin B1 levels [1]: increase in cyclin B1 levels; also recorded: increased cyclin B1 levels | p-H2AX and p-Chk2 [1]: increased p-H2AX and p-Chk2 without transporter inhibitor | cell death (scatter, viability and DNA content dyes) ([1]; compared to refractory cell lines): more cell death; also recorded: increased percentage of dead cells | CD33++ cells with induced DNA damage response, as measured by p-CHK2 and p-H2AX (primary AML cell sample; signature 1 sample, 6 hours of exposure to Mylotarg): approximately 60% | live myeloid cells becoming PARP+ (primary AML cell sample; signature 1 sample, after 24 and 48 hours): 22% | CD33++ cells with induced DNA damage response, as measured by p-CHK2 and p-H2AX (primary AML cell sample; signature 2 sample, 6 hours of exposure to Mylotarg): approximately 80% | live myeloid cells becoming PARP+ (primary AML cell sample; signature 2 sample, after 24 or 48 hours): 4% | live myeloid cells becoming PARP+ (primary AML cell sample; signature 3 sample): 8% | CD33+ cells with induced DNA damage response, as measured by p-CHK2 and p-H2AX (primary AML cell sample; signature 3 sample, 6 hours of exposure to Mylotarg): approximately 15% | DNA damage response (levels of p-H2AX, p-Chk2, p-ATM, p-53) (U937 cell line): increased levels; also recorded: significant increase | cell cycle arrest (Cyclin B1, p-Histone H3(S28), p-Cdk1) (U937 cell line; 24 hours exposure): arrest at the G2/M checkpoint | cell cycle arrest (Cyclin B1, p-Histone H3(S28)) (U937 cell line; 48 hours exposure): arrest at the G2/M checkpoint, and a minor cell population with increased p-histone H3(S28), indicating minor arrest in M phase | light sensitivity of the drug product [2]: light sensitive | cleaved PARP and apoptosis (Healthy myeloid cells): increases in cleaved PARP and apoptosis | levels of p-Chk2, p-H2AX, p-ATM, p-P53 (Healthy myeloid cells): increased levels | G2/M arrest [3]: failure to undergo G2/M arrest | cell death [3]: only modest increase in cell death | cyclin B1 levels [3]: failure to increase cyclin B1 levels | p-H2AX and p-Chk2 [3]: minimal increase in p-H2AX and p-Chk2 | DNA damage response (levels of p-H2AX, p-p53, p-Chk2, p-ATM) (Ramos cells): does not induce changes | proportion of populations of cells arrested in the cell cycle (p-Histone H3(S28), p-CDK1, CyclinB1) (Ramos cells): does not largely increase | DNA damage response (levels of p-H2AX, p-p53, p-Chk2, p-ATM) (KG-1 cells): does not induce changes; also recorded: this was not the case | cell cycle arrest and apoptosis after Mylotarg treatment (KG-1 cells): resistant to cell cycle arrest and apoptosis | proportion of populations of cells arrested in the cell cycle (p-Histone H3(S28), p-CDK1, CyclinB1) (KG-1 cells): does not largely increase | DNA damage response (levels of p-H2AX, p-p53, p-Chk2, p-ATM) (GDM-1 cells): does not induce changes; also recorded: this was not the case | cell cycle arrest and apoptosis after Mylotarg treatment (GDM-1 cells): resistant to cell cycle arrest and apoptosis | proportion of populations of cells arrested in the cell cycle (p-Histone H3(S28), p-CDK1, CyclinB1) (GDM-1 cells): does not largely increase | expression levels of the CD33 and CD13 phenotypic markers for myeloid cells ([4]; exposed for 6 hours): reduction | CD11b levels ([4]; same exposure conditions): remain unchanged | CD13 levels ([4]; twenty-four (24) hours of exposure): reduced
